Tested on: SAM-P1 male mice (mice of senescence-accelerated model)
Assay: Maximum force of soleus muscle under electrical stimulation in senescence-accelerated mice
Type: in vivo, mouse
Conditions: after breeding for 9 weeks
Procedure: Thereafter, these mice were divided into the following groups (eight mice in each group): […] The mice of each group were subjected to a physical exercise at 10 m/min for 3 minutes in a running-water pool five times a day and four days a week. After breeding for nine weeks, a soleus muscle was removed from a mouse of each group through dissection and fixed to a transducer (FORT100, product of World Precision Instruments, Inc.) in Krebs solution of 37° C. (aeration: 95%-oxygen, 5%-carbon dioxide). Subsequently, under electrical stimulation (0.5 msec, 140 Hz), the maximum muscle force of the muscle sample was determined.

CC(C)C[C@H](N)C(=O)O [leucine, Leucine]
Maximum soleus muscle force compared with SAM-P1 control group (Dunnet test): No significant difference | Maximum muscle force (soleus muscle, electrical stimulation 0.5 msec 140 Hz, diet 0.35% of each ingredient): 11.1 ± 0.7 g

Reference: patent US20090281174A1, “SENESCENCE INHIBITOR” (KAO CORPORATION, priority 2006, published 2009)
